Experimental findings from patent US4943576A, “Substituted quinoxalyl-imidazolidine-2,4-diones, processes for their preparation, their use as medicaments and pharmaceutical preparations” (Hoechst Aktiengesellschaft, priority 1987, dated 1990) are described below.

The target in one assay is aldose reductase (Rattus norvegicus, UniProt P07943). The assay can be described thus: In vitro inhibition of enzyme activity (rat hepatic enzyme preparation). The class given is biochemical. The note with it: read-out: IC50 (molar concentration required for 50% inhibition of aldose reductase). The text has this: 1. in vitro inhibition of the enzyme activity of isolated aldose reductase;
In vitro inhibition of enzyme activity (rat hepatic enzyme preparation)
The inhibiting values on aldose reductase are summarized in Table 1 for some compounds according to the invention (IC50 [M] denotes the molar concentration of the compound which is required for 50% inhibition).

Assay [1] relates to sorbitol accumulation in nerve tissue. The assay can be described thus: Reduction of increased sorbitol levels in streptozotocin-diabetic rats, nerve tissue. The class given is in vivo. The note with it: 25 mg/kg oral in Tylose suspension, vs untreated controls. From the text: (§1) 3. reduction of increased sorbitol levels in streptozotocin-diabetic rats in vivo;
(§2) Reduction of increased sorbitol levels
(§3) The oral administration in ®Tylose suspension (=suspension of a water-soluble cellulose ether), of the substances mentioned as examples in the following Table 3 to streptozotocin-diabetic rats leads to a great reduction in the sorbitol accumulation in erythrocytes and in the nerve tissue in comparison with untreated control animals.

In assay [2] the test system is sorbitol accumulation in erythrocytes. The assay can be described thus: Reduction of increased sorbitol levels in streptozotocin-diabetic rats, erythrocytes. The note with it: 25 mg/kg oral in Tylose suspension, vs untreated controls. The format is in vivo.
Source text: as §1, §2, §3

The test system of assay [3] is sorbitol accumulation in nerve. Briefly: In vitro inhibition of sorbitol accumulation, nerve (tissue of normal rats). The format is cell-based. The note with it: Rattus norvegicus, 3 μmol/l. As for the experimental part:
(§4) 2. in vitro inhibition of the sorbitol accumulation in erythrocytes in the lens or in the sciatic nerve of normal or streptozotocin-diabetic rats;
(§5) In vitro inhibition of sorbitol accumulation (tissue of normal rats)
(§6) The inhibiting values summarized in Table 2 were determined for some of the compounds according to the invention at a concentration of 3 μmol/l.

Assay [4] relates to sorbitol accumulation in erythrocytes. The assay can be described thus: In vitro inhibition of sorbitol accumulation, erythrocytes (tissue of normal rats). The format is cell-based. To be noted: Rattus norvegicus, Erythrocyte, 3 μmol/l. As for the experimental part:
as §4, §5, §6

On to “5-(6'/7'-Fluoro-3'-methyl-quinoxalin-2'-yl)-5-methyl-imidazolidine-2,4-dion [Example 26]”, for which the IC50 on aldose reductase came to 280 µM.
As to “5-(6'/7'-Fluoro-quinoxalin-2'-yl)-5-methyl-imidazolidine-2,4-dione [Example 25]”, in assay [1], the “Sorbitol content after 5 hours in nerve tissue” value is recorded as -70%. Moreover, the “Sorbitol content after 5 hours in erythrocytes” value in assay [2] was -66%.
For the molecule `Cc1nc2ccccc2nc1C1(C)NC(=O)NC1=O` (single isomer, unassigned; (+)) [Example 33, (+)-5-Methyl-5-(3'-methyl-quinoxalin-2'-yl)-imidazolidine-2,4-dione], the inhibition at 3 µM in assay [3] was -30%; in assay [4] it was -26%.
`CCc1nc2ccc(C3(C)NC(=O)NC3=O)cc2nc1CC` (centres unmarked) [Example 2, 5-(2',3'-Diethyl-quinoxalin-6'-yl)-5-methyl-imidazolidine2,4-dione]: the inhibition at 3 µM in assay [3] was -30%. Moreover, the “Sorbitol content after 5 hours in nerve tissue” value in assay [1] is reported as -22%. In addition, the “Sorbitol content after 5 hours in erythrocytes” value in assay [2] is on record as -57%.
With `CC1(c2cnc3ccccc3n2)NC(=O)NC1=O` (centres unmarked) [Example 18, 5-(Quinoxalin-2'-yl)-5-methyl-imidazolidine-2,4-dione], the inhibition at 3 µM is -39% in assay [3] and -10% in assay [4].
On to `Cc1cc2nc(C)c(C3(C)NC(=O)NC3=O)nc2cc1C` (centres unmarked) [Example 20, 5-Methyl-5-(3',6',7'-trimethyl-quinoxalin-2'-yl)-imidazolidine-2,4-dione hydrate], for which the inhibition at 3 µM in assay [4] was -29%.
In the case of `COc1cc2ncc(C3(C)NC(=O)NC3=O)nc2cc1OC` (centres unmarked) [Example 21, 5-(6',7'-Dimethoxy-quinoxalin-2'-yl)-5-methyl-imidazolidine-2,4-dione], the inhibition at 3 µM in assay [3] was -38%; in assay [4] it was -26%.
Consider `Cc1nc2ccccc2nc1C1(C)NC(=O)NC1=O` (centres unmarked) [Example 23, 5-Methyl-5-(3'-methyl-quinoxalin-2'-yl)-imidazolidine-2,4-dione], for which the inhibition at 3 µM in assay [3] is -65%; in assay [4] it was -21%. For the same molecule, the “Sorbitol content after 5 hours in nerve tissue” value in assay [1] is recorded as -83%. Besides, the “Sorbitol content after 5 hours in erythrocytes” value in assay [2] is -72%.

The inhibition is the change of the read-out against control, counted positive when it falls.
